Reference: paper PMC4500165 (Pure and applied chemistry. Chimie pure et appliquee, 2013)
pKd: −log10 of the molar value.

Target: T1, peanut agglutinin (PNA) (Arachis hypogaea, UniProt P02872)
T1 sequence (P02872 24-273): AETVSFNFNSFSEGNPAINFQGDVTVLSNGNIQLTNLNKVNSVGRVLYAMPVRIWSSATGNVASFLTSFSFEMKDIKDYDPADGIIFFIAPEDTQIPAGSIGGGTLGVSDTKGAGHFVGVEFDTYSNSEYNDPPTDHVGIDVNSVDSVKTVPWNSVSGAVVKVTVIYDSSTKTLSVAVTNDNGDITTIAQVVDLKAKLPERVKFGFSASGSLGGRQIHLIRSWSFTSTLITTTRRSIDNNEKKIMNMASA
Test: isothermal titration calorimetry, one-site model
Format: binding

- pKd: 3.26
SMILES: [N-]=[N+]=Nc1c(F)c(F)c(C(=O)NCCOCCOCCS[C@@H]2O[C@H](CO)[C@@H](O[C@@H]3O[C@H](CO)[C@H](O)[C@H](O)[C@H]3O)[C@H](O)[C@H]2O)c(F)c1F [compound 5, 2-(2-(2-(4-Azido-2,3,5,6-tetrafluorobenzamido)ethoxy)ethoxy)ethyl 4-O-β-D-galactopyranosyl-1-thio-β-D-glucopyranoside]
